Results reported in patent US9050378B2, “N2S2 chelate-targeting ligand conjugates” (Board of Regents, The University of Texas System, priority 2003, dated 2015).

Key:
RBA CRL-1747 = experiment: In vitro cellular uptake and blocking of ^99mTc-EC-angiostatin with unlabeled angiostatin; assay type: cell-based, rat; settings: unlabeled angiostatin 0-200 μM, RBA CRL-1747, 2 hours; read-out: IC-50 of angiostatin (inhibition of ^99mTc-EC-angiostatin uptake)
Description: The IC-50 of angiostatin was 176 μM (R^2=0.998) (FIG. 3).

[1] = test system: A549 human lung cancer tumor; experiment: Tissue distribution in lung tumor-bearing nude mice; assay type: in vivo
Description: Female athymic nude mice (NCr-nu/nu, NCI, Bethasda, Md.) were inoculated with human lung cancer cells (A549 tumor cell line, 3×10^6 cells/mouse, intramuscular) by one author in the mid-dorsal region. After the tumor reached 6 mm, separate biodistribution studies using ^99mTc-EC-DG and 18F-FDG were conducted. Each received ^99mTc-EC-DG or 18F-FDG intravenously (n=3/time point). The injection activity was 1-3 μCi/mouse. The injected mass of ^99mTc-EC-DG was 0.2 mg/rodent.

[2] = test system: RBA CRL-1747 mammary tumor; experiment: Biodistribution in breast (mammary) tumor-bearing rats; assay type: in vivo, rat; settings: Table 2
Description: (§1) Biodistribution was assessed in mammary tumor-bearing rats (RBA CRL-1747, n=3/time interval, iv). Studies were performed 14 to 17 days after implantation when tumors reached approximately 1 cm in diameter. Following administration of the radiotracer, rats were sacrificed at 0.5-4 hrs. The selected tissues were excised, weighed and counted for radioactivity by using a gamma counter (Packard Instruments, Downers Grove, Ill.). The biodistribution of tracer in each sample was calculated as percentage of the injected dose per gram of tissue wet weight (% ID/g).
as §1, with “breast” for “mammary”

Compound: angiostatin
- IC50 (RBA CRL-1747): 176 µM

Compound: OC[C@H]1OC(O)[C@H]([18F])[C@@H](O)[C@@H]1O (stereo partly drawn) [^18FDG, [^18F]fluorodeoxyglucose, reference compound]
- Blood ([1]; 30 min): 0.793 ± 0.067 % of injected dose per gram of tissue weight
- Brain ([1]; 30 min): 6.557 ± 0.390 % of injected dose per gram of tissue weight
- Heart ([1]; 30 min): 11.94 ± 2.571 % of injected dose per gram of tissue weight
- Intestine ([1]; 30 min): 2.322 ± 0.542 % of injected dose per gram of tissue weight
- Kidney ([1]; 30 min): 1.137 ± 0.117 % of injected dose per gram of tissue weight
- Liver ([1]; 30 min): 1.051 ± 0.057 % of injected dose per gram of tissue weight
- Lung ([1]; 30 min): 2.490 ± 0.209 % of injected dose per gram of tissue weight
- Muscle ([1]; 30 min): 4.876 ± 0.621 % of injected dose per gram of tissue weight
- Spleen ([1]; 30 min): 1.824 ± 0.196 % of injected dose per gram of tissue weight
- Stomach ([1]; 30 min): 5.046 ± 0.461 % of injected dose per gram of tissue weight
- Thyroid ([1]; 30 min): 4.490 ± 0.526 % of injected dose per gram of tissue weight
- Tumor ([1]; 30 min): 2.226 ± 0.150 % of injected dose per gram of tissue weight
- Tumor/Blood ([1]; 30 min): 2.821 ± 0.144
- Tumor/Lung ([1]; 30 min): 0.912 ± 0.119
- Tumor/Muscle ([1]; 30 min): 0.463 ± 0.026
- Blood ([1]; 2 h): 0.236 ± 0.009 % of injected dose per gram of tissue weight
- Brain ([1]; 2 h): 3.113 ± 0.132 % of injected dose per gram of tissue weight
- Heart ([1]; 2 h): 20.33 ± 7.675 % of injected dose per gram of tissue weight
- Intestine ([1]; 2 h): 2.764 ± 0.496 % of injected dose per gram of tissue weight
- Kidney ([1]; 2 h): 0.553 ± 0.104 % of injected dose per gram of tissue weight
- Liver ([1]; 2 h): 0.586 ± 0.040 % of injected dose per gram of tissue weight
- Lung ([1]; 2 h): 2.222 ± 0.137 % of injected dose per gram of tissue weight
- Muscle ([1]; 2 h): 5.409 ± 0.611 % of injected dose per gram of tissue weight
- Spleen ([1]; 2 h): 1.903 ± 0.144 % of injected dose per gram of tissue weight
- Stomach ([1]; 2 h): 4.374 ± 0.864 % of injected dose per gram of tissue weight
- Thyroid ([1]; 2 h): 4.617 ± 0.400 % of injected dose per gram of tissue weight
- Tumor ([1]; 2 h): 1.699 ± 0.172 % of injected dose per gram of tissue weight
- Tumor/Blood ([1]; 2 h): 7.261 ± 1.007
- Tumor/Lung ([1]; 2 h): 0.775 ± 0.113
- Tumor/Muscle ([1]; 2 h): 0.319 ± 0.031
- Blood ([1]; 4 h): 0.203 ± 0.062 % of injected dose per gram of tissue weight
- Brain ([1]; 4 h): 2.065 ± 0.080 % of injected dose per gram of tissue weight
- Heart ([1]; 4 h): 19.35 ± 8.286 % of injected dose per gram of tissue weight
- Intestine ([1]; 4 h): 1.562 ± 0.342 % of injected dose per gram of tissue weight
- Kidney ([1]; 4 h): 0.568 ± 0.027 % of injected dose per gram of tissue weight
- Liver ([1]; 4 h): 0.785 ± 0.039 % of injected dose per gram of tissue weight
- Lung ([1]; 4 h): 2.280 ± 0.182 % of injected dose per gram of tissue weight
- Muscle ([1]; 4 h): 4.743 ± 0.610 % of injected dose per gram of tissue weight
- Spleen ([1]; 4 h): 1.591 ± 0.161 % of injected dose per gram of tissue weight
- Stomach ([1]; 4 h): 2.278 ± 0.455 % of injected dose per gram of tissue weight
- Thyroid ([1]; 4 h): 4.424 ± 0.442 % of injected dose per gram of tissue weight
- Tumor ([1]; 4 h): 1.606 ± 0.182 % of injected dose per gram of tissue weight
- Tumor/Blood ([1]; 4 h): 8.932 ± 1.973
- Tumor/Lung ([1]; 4 h): 0.717 ± 0.106
- Tumor/Muscle ([1]; 4 h): 0.346 ± 0.048
- tumor-to-tissue ratios, ^99mTc-EC-DG versus 18F-FDG ([1]; A549 nude mice, iv): higher tumor/blood ratios

Compound: O=C([O-])[C@H](C[S-])NCCN[C@@H](CS)C(=O)[O-].[O]=[Tc+3] [^99mTc-EC, ^99mTc-L,L-ethylenedicysteine, reference compound]
- Blood ([2]; 1 Hour): 0.273 ± 0.039 % ID/g
- Intestine ([2]; 1 Hour): 0.787 ± 0.106 % ID/g
- Kidney ([2]; 1 Hour): 8.991 ± 0.268 % ID/g
- Liver ([2]; 1 Hour): 0.367 ± 0.006 % ID/g
- Lung ([2]; 1 Hour): 0.187 ± 0.029 % ID/g
- Muscle ([2]; 1 Hour): 0.043 ± 0.002 % ID/g
- Stomach ([2]; 1 Hour): 0.127 ± 0.106 % ID/g
- Thyroid ([2]; 1 Hour): 0.229 ± 0.118 % ID/g
- Tumor ([2]; 1 Hour): 0.149 ± 0.020 % ID/g
- Tumor/Blood ([2]; 1 Hour): 0.544 ± 0.004
- Tumor/Lung ([2]; 1 Hour): 0.797 ± 0.022
- Tumor/Muscle ([2]; 1 Hour): 3.414 ± 0.325
- Urine ([2]; 1 Hour): 11.045 ± 6.158 % ID/g
- Blood ([2]; 2 Hour): 0.211 ± 0.001 % ID/g
- Intestine ([2]; 2 Hour): 0.401 ± 0.093 % ID/g
- Kidney ([2]; 2 Hour): 9.116 ± 0.053 % ID/g
- Liver ([2]; 2 Hour): 0.286 ± 0.073 % ID/g
- Lung ([2]; 2 Hour): 0.144 ± 0.002 % ID/g
- Muscle ([2]; 2 Hour): 0.028 ± 0.009 % ID/g
- Stomach ([2]; 2 Hour): 0.037 ± 0.027 % ID/g
- Thyroid ([2]; 2 Hour): 0.106 ± 0.003 % ID/g
- Tumor ([2]; 2 Hour): 0.115 ± 0.002 % ID/g
- Tumor/Blood ([2]; 2 Hour): 0.546 ± 0.010
- Tumor/Lung ([2]; 2 Hour): 0.797 ± 0.002
- Tumor/Muscle ([2]; 2 Hour): 4.425 ± 1.397
- Urine ([2]; 2 Hour): 13.192 ± 4.505 % ID/g
- Blood ([2]; 4 Hour): 0.149 ± 0.008 % ID/g
- Intestine ([2]; 4 Hour): 0.103 ± 0.009 % ID/g
- Kidney ([2]; 4 Hour): 7.834 ± 1.018 % ID/g
- Liver ([2]; 4 Hour): 0.234 ± 0.016 % ID/g
- Lung ([2]; 4 Hour): 0.120 ± 0.012 % ID/g
- Muscle ([2]; 4 Hour): 0.019 ± 0.001 % ID/g
- Stomach ([2]; 4 Hour): 0.043 ± 0.014 % ID/g
- Thyroid ([2]; 4 Hour): 0.082 ± 0.005 % ID/g
- Tumor ([2]; 4 Hour): 0.096 ± 0.005 % ID/g
- Tumor/Blood ([2]; 4 Hour): 0.649 ± 0.005
- Tumor/Lung ([2]; 4 Hour): 0.798 ± 0.007
- Tumor/Muscle ([2]; 4 Hour): 5.093 ± 0.223
- Urine ([2]; 4 Hour): 8.693 ± 2.981 % ID/g
- Blood ([2]; 30 Min.): 0.435 ± 0.29 % ID/g
- Intestine ([2]; 30 Min.): 0.173 ± 0.029 % ID/g
- Kidney ([2]; 30 Min.): 7.914 ± 0.896 % ID/g
- Liver ([2]; 30 Min.): 0.508 ± 0.062 % ID/g
- Lung ([2]; 30 Min.): 0.272 ± 0.019 % ID/g
- Muscle ([2]; 30 Min.): 0.060 ± 0.006 % ID/g
- Stomach ([2]; 30 Min.): 0.136 ± 0.060 % ID/g
- Thyroid ([2]; 30 Min.): 0.219 ± 0.036 % ID/g
- Tumor ([2]; 30 Min.): 0.342 ± 0.163 % ID/g
- Tumor/Blood ([2]; 30 Min.): 0.776 ± 0.322
- Tumor/Lung ([2]; 30 Min.): 1.256 ± 0.430
- Tumor/Muscle ([2]; 30 Min.): 5.841 ± 3.253
- Urine ([2]; 30 Min.): 9.124 ± 0.808 % ID/g
